In general, Kd refers to a measure of binding affinity in units of concentration. A low value points to a tighter complex.

The values that follow come from US20260248930A1, “PEPTIDE COMPOSITIONS TARGETING GLYPICAN-3 AND USES THEREOF” (PeptiDream Inc., priority 2023, published 2026).

*1 amine or outer side, *2 acyl side, *3 side chain or, on linkers, in order; H or OH if unused. Where a SMILES comes first, the peptide text is derived from it. Bridges are numbered along the chain shown (N, C = ends). [ ]: non-standard residue; d: D form. The star is where a group is joined. ξ: configuration not given here. MeDapCOpipzaa = 3-(4-(carboxymethyl)piperazine-1-carboxamido)-2-(methylamino)propanoic acid, CN([C@@H](CNC(=O)N1CCN(CC(=O)[*:3])CC1)C(=O)[*:2])[*:1]; F4aao = (S)-2-amino-3-(4-(carboxymethoxy)phenyl)propanoic acid, O=C([C@H](Cc1ccc(OCC(=O)[*:3])cc1)N[*:1])[*:2]; MeHseMe = 4-methoxy-2-(methylamino)butanoic acid, COCC[C@@H](C(=O)[*:2])N(C)[*:1]; Phe(4-(1-Me-pyrazol-4-yl)) = Cn1cc(-c2ccc(C[C@H](N)C(=O)O)cc2)cn1; Biotin‑PEG12c = biotin-PEG12c group on the lysine side chain; TMe = O-methyl threonine, CO[C@H](C)[C@H](N[*:1])C(=O)[*:2]; NMeAla(isoquinolin-7-yl) = CN[C@@H](Cc1ccc2ccncc2c1)C(=O)O; 3Pal(6-Ph) = N[C@@H](Cc1ccc(-c2ccccc2)nc1)C(=O)O; Biotin = O=C1N[C@H]2[C@H](CS[C@H]2CCCCC(=O)*)N1; PEG10 = NCCOCCOCCOCCOCCOCCOCCOCCOCCOCCOCCC(=O)O; Phe(4-COOH) = N[C@@H](Cc1ccc(C(=O)O)cc1)C(=O)O; NMe2Nal = CN[C@@H](Cc1ccc2ccccc2c1)C(=O)O; AEF = NCCOc1ccc(C[C@H](N)C(=O)O)cc1; NMeI = CC[C@H](C)[C@H](NC)C(=O)O; NMeQ = CN[C@@H](CCC(N)=O)C(=O)O; NMeK = CN[C@@H](CCCCN)C(=O)O; NMeC = CN[C@@H](CS)C(=O)O; ξNMeC = CNC(CS)C(=O)O

In one test the target is Human Glypican3-Fc (Homo sapiens, UniProt P51654). The test is described as follows: SPR binding to human Glypican3-Fc captured on Protein A chip, Method B-3 (5 concentrations). The note with it: SPR method B-3. The protocol: (§1) A Protein A sensor chip (Cytiva) was inserted into a Biacore T200 (Cytiva), priming was performed three times with a running buffer: HBS-P+, pH 7.4 (Cytiva), and equilibration was carried out at a flow rate of 30 μL/min. Glypican3-Fc was allowed to react for 60 seconds at a flow rate of 10 μL/min. After capturing human Glypican3-Fc, a peptide solution prepared to 10 mM in DMSO solution was diluted with a running buffer to a final concentration of 10 μM. […] Using the above samples, peptide kinetics for Glypican3 was obtained by SPR measurement. Kinetics evaluation of Glypican3 was performed by SPR measurements at a flow rate of 10 μL/min, setting the association time to 120 seconds and the disassociation time to 600 seconds.
(§2) The obtained data by Method B-1, Method B-2, Method B-3, and Method B-4 were analyzed by follow. Single Cycle Kinetics was used as the kinetics evaluation model, and curve fitting was performed using Biacore T200 Evaluation Software Version 3.0 (Cytiva).

Test [1] relates to HepG2 cells (glypican 3 expressed on the cell surface). In words: Flow cytometry, biotinylated peptides followed by SAPE, HepG2. To be noted: biotinylated peptide at 100 nM followed by SAPE (1:250), on ice; compared with SK-Hep1 negative control; FIG. 2. The format is cell-based, human. As for the experimental part:
(§3) Macrocyclic peptide-conjugates in this invention were tested in cells expressing glypican 3 and analyzed by flow cytometry.
(§4) HepG2 (human hepatocellular carcinoma) and SK-HEP-1 (human hepatic adenocarcinoma) cell lines were purchased from the American Type Culture Collection (ATCC; Manassas, VA). Huh-7 (human hepatoblastoma) cell line was purchased from the Japanese Collection of Research Bioresources Cell Bank (JCRB Cell Bank, Osaka, Japan). HepG2 and SK-HEP-1 were grown in EMEM (FUJIFILM Wako Pure Chemical Corporation, 055-08975) with 10% fetal bovine serum (FBS; Thermo Fisher Scientific, 10270106) and 0.1% gentamicin (NACALAI TESQUE, 11980-14). Huh-7 was grown in DMEM (Thermo Fisher Scientific, 10567014) with 10% FBS and 0.1% gentamicin.
(§5) HepG2, SK-HEP-1 and Huh-7 cells were collected from the culture dish and stained with biotinylated peptides at 100 nM followed by Streptavidin, R-Phycoerythrin Conjugate (SAPE; Thermo Fisher Scientific, S866) (1:250). Cells were washed with phosphate-buffered saline (PBS; FUJIFILM Wako Pure Chemical Corporation, 043-29791) containing 0.5% FBS after addition of peptides or SAPE. All staining procedures were performed on ice. Samples were measured using CytoFLEX S (Beckman Coulter) and CytExpert ver2.4 software. All data were analyzed using FlowJo™ (BD Bioscience). […]

Test [2] has as its system Huh-7 cells (glypican 3 expressed on the cell surface). In words: Flow cytometry, biotinylated peptides followed by SAPE, Huh-7. To be noted: biotinylated peptide at 100 nM followed by SAPE (1:250), on ice; compared with SK-Hep1 negative control; FIG. 3. It counts as cell-based, human. As for the experimental part: as §3, §4, §5
In general terms: Flow cytometry measures light scatter and fluorescence of single cells or particles in a stream.

In the next test the target is T1, human Glypican3 (Homo sapiens, UniProt P51654).
T1 construct: purchased R&D systems 2119-GP
T1 sequence (P51654 25-554): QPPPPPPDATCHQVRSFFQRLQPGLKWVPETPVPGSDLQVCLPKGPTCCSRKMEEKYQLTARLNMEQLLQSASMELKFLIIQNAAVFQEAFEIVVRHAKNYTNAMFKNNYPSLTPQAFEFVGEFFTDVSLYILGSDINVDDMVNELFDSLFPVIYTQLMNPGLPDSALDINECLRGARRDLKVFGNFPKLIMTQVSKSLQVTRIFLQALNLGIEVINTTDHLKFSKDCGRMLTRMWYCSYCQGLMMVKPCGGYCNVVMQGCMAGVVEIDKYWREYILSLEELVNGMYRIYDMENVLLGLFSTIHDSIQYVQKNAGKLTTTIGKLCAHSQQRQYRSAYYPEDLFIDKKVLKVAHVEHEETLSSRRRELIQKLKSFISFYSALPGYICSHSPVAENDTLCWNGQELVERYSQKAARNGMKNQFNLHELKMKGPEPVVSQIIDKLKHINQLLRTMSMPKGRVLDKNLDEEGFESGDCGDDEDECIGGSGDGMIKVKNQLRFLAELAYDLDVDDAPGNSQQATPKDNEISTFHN
In words: SPR binding to immobilized human Glypican3, Method B-1 (CM3 chip, amine coupling). The note with it: SPR method B-1. As for the experimental part: Macrocyclic peptides in this invention were tested for binding to Glypican-3 protein by SPR.
A CM3 sensor chip (Cytiva) was inserted into a Biacore T200 (Cytiva), primed three times with a running buffer: HBS-P+, pH 7.4 (Cytiva), and equilibrated at a flow rate of 30 μL/min. Ligand immobilization was performed at a flow rate of 10 μL/min. 50 μL each of 60 mM EDC solution (Cytiva) and 650 mM NHS solution (Cytiva) were mixed, and then reacted at a flow rate of 10 μL/min for 420 seconds. 150 μL of 0.2 μM human Glypican3 (R&D systems, catalog number: 2119-GP) solution which was prepared by diluting with 10 mM acetic acid solution (pH 5.0), was reacted at a flow rate of 10 μL/min for 420 seconds, and Glypican3 was immobilized on the CM3 sensor chip. After immobilization, 1.0 M ethanolamine aqueous solution (Cytiva) was allowed to react for 420 seconds at a flow rate of 10 μL/min for capping. A peptide lysate prepared to 10 mM in DMSO solution was diluted with running buffer to a final concentration of 10 μM peptide lysate. After that, 5 serial dilution series (100 nM, 50 nM, 25 nM, 10 nM, 5 nM) of peptide solutions were prepared. Using the above samples, peptide kinetics for Glypican3 was obtained by SPR measurement. […]
The obtained data by Method B-1, Method B-2, Method B-3, and Method B-4 were analyzed by follow. […]
On the technique in general: In SPR one partner is held on a chip, and binding of the other changes the refractive index at the surface.

Test [3] concerns the target T2, Human Glypican3-Fc (ACRO Biosystems, GP3-H5258) (human, UniProt P51654 25-559).
T2 construct: Bought Fc fusion, captured by anti-human IgG (Fc) antibody (Method B-2) or on a Protein A chip (Methods B-3, B-4); Supplier and catalogue number are printed only in Method B-2; B-3 and B-4 say only Glypican3-Fc / human Glypican3-Fc; not shown: Fc part of the bought fusion protein
In words: SPR Biacore T200, Method B-3: Glypican3-Fc captured on Protein A chip, single cycle kinetics. The protocol: as §1, §2

The target of test [4] is Human Glypican3-Fc (ACRO Biosystems, GP3-H5258) (human) (UniProt P51654). Described as above.
Sequence of Human Glypican3-Fc (ACRO Biosystems, GP3-H5258) (human) (P51654 25-559 limits assumed): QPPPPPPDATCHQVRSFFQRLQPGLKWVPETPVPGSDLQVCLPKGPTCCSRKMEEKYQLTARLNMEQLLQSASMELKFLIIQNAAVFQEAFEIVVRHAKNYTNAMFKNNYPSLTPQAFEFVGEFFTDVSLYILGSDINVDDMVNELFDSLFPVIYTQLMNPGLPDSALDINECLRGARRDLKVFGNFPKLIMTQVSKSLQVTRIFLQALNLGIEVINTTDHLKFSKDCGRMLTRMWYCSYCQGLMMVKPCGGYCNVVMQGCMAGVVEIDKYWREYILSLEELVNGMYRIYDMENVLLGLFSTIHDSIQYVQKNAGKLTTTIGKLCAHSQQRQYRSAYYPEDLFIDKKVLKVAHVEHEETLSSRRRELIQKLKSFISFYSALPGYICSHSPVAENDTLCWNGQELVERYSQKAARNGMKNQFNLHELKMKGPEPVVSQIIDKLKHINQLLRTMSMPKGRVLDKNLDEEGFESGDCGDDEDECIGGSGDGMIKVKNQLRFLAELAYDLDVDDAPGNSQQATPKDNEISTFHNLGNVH

T2 sequence (P51654 25-559 limits assumed): as above

`CC[N+]1=C(/C=C/C=C/C=C2/N(CCCCCC(=O)NCCCC[C@H](NC(=O)CCOCCOCCOCCOCCOCCOCCOCCOCCOCCOCCNC(=O)CNC(C)=O)C(N)=O)c3ccc(S(=O)(=O)O)cc3C2(C)C)C(C)(C)c2cc(S(=O)(=O)[O-])ccc21` [C-M-64, 2-[(1E,3E)-5-[(2E)-1-(5-{[(5)-5-carbamoyl-5-[1-(2-acetamidoacetamido)-3,6,9,12,15,18,21,24,27,30-decaoxatritriacontan-33-amido]pentyl]carbamoyl}pentyl)-3,3-dimethyl-5-sulfo-2,3-dihydro-1H-indol-2-ylidene]penta-1,3-dien-1-yl]-1-ethyl-3,3-dimethyl-3H-indol-1-ium-5-sulfonate, reference compound]: the Kd on Human Glypican3-Fc was less than 1 nM. Take `CC[C@H](C)[C@@H]1NC(=O)[C@H](Cc2ccc(C(=O)O)cc2)NC(=O)[C@H](CCC(N)=O)N(C)C(=O)[C@H](CC(=O)O)NC(=O)[C@H]([C@@H](C)CC)N(C)C(=O)[C@H](CCCCNC(C)=O)N(C)C(=O)CSCC(C(=O)NCC(=O)NCCOCCOCCOCCOCCOCCOCCOCCOCCOCCOCCC(=O)N[C@@H](CCCCNC(=O)CCCC[C@@H]2SC[C@@H]3NC(=O)N[C@@H]32)C(N)=O)N(C)C(=O)[C@H](Cc2ccc(-c3ccccc3)nc2)NC(=O)CNC(=O)[C@H](Cc2ccc3ccncc3c2)N(C)C(=O)[C@H](Cc2ccc(O)cc2)NC(=O)[C@H]([C@@H](C)CC)NC1=O` (some centres unmarked) [PLB-60] ({CH2CO}-[NMeK](Ac)[NMeI]D[NMeQ][Phe(4-COOH)]IIY[NMeAla(isoquinolin-7-yl)]G[3Pal(6-Ph)][ξNMeC]G[PEG10]K(Biotin)-NH2; thioether N-12): in test [1], the “comparative staining of HepG2 by flow cytometry” value is “specific binding to both glypican expressing cells and SAPE”. For the same molecule, the “comparative staining of Huh-7 by flow cytometry” value in test [2] was “specific binding to both glypican expressing cells and SAPE”. Molecule `CC[C@H](C)[C@@H]1NC(=O)[C@H]([C@@H](C)OC)NC(=O)[C@H](Cc2ccc(C(=O)O)cc2)NC(=O)[C@H](CCC(N)=O)N(C)C(=O)[C@H](CC(=O)O)NC(=O)[C@H](CCC(N)=O)N(C)C(=O)[C@H](CCC(N)=O)N(C)C(=O)CSC[C@@H](C(N)=O)N(C)C(=O)[C@H](Cc2ccc(-c3cnn(C)c3)cc2)NC(=O)CNC(=O)[C@H](Cc2ccc3ccccc3c2)N(C)C(=O)[C@H](Cc2ccc(C(=O)O)cc2)NC1=O` [compound 18] ({CH2CO}-[NMeQ][NMeQ]D[NMeQ][Phe(4-COOH)]T(Me)I[Phe(4-COOH)][NMe2Nal]G[Phe(4-(1-Me-pyrazol-4-yl))][NMeC]-NH2; thioether N-12) gave a Kd at human Glypican3 of 1.8 nM. With `CC[C@H](C)[C@@H]1NC(=O)[C@H]([C@@H](C)OC)NC(=O)[C@H](Cc2ccc(C(=O)O)cc2)NC(=O)[C@H](CNC(=O)N2CCN(CC(=O)O)CC2)N(C)C(=O)[C@H](CC(=O)O)NC(=O)[C@H](CCOC)N(C)C(=O)[C@H](CCCCNC(=O)N2CCN(CC(=O)O)CC2)N(C)C(=O)CSC[C@@H](C(N)=O)N(C)C(=O)[C@H](Cc2ccc(-c3ccccc3)nc2)NC(=O)CNC(=O)[C@H](Cc2ccc3ccncc3c2)N(C)C(=O)[C@H](Cc2ccc(OCCN)cc2)NC1=O` [compound 55], the Kd on Human Glypican3-Fc amounted to 1.8 nM.

Molecule {CH2CO}-[NMeK](Biotin‑PEG12c)[NMeI]D[NMeQ][Phe(4-COOH)]II[F4aao][NMeAla(isoquinolin-7-yl)]G[3Pal(6-Ph)][NMeC]-NH2 (thioether N-12) [macrocyclic peptide-biotin conjugate PLB-64 (SEQ ID NO: 76)] displayed a Kd in test [3] of 1.04 nM. As for {CH2CO}-[MeDapCOpipzaa][MeHseMe]D[MeDapCOpipzaa][Phe(4-COOH)][TMe]I[AEF][NMeAla(isoquinolin-7-yl)]G[3Pal(6-Ph)][NMeC]-NH2 (thioether N-12) [macrocyclic peptide of SEQ ID NO: 54], the Kd in test [4] amounted to 1 nM. Same read-out and setting: next, {CH2CO}-[MeDapCOpipzaa][MeHseMe]D[MeDapCOpipzaa][Phe(4-COOH)][TMe]I[AEF][NMe2Nal]G[3Pal(6-Ph)][NMeC]-NH2 (thioether N-12) [macrocyclic peptide of SEQ ID NO: 50]: 0.3 nM.
